# Active and inactive are the calls of the source. Cut-off read from the data, not from the text of the source, for most assays here: actives have a measured IC50 and inactives only a lower limit.
# Legend:
# Type in all cases: functional
# [1] = target: 26S proteasome non-ATPase regulatory subunit 14 (Homo sapiens, UniProt O00487); assay: inhibition of proteasome subunit RPN11 – biochemical, fluorescence polarization, uHTS hits, confirmation (AID 602368)
# [2] = target: 72 kDa type IV collagenase (Homo sapiens, UniProt P08253); assay: Dose Response validation of uHTS RPN11 inhibitor hits using a MMP-2 Fluorescence assay.
# Prothrombin = Prothrombin (Bos taurus, UniProt P00735); assay: thrombin inhibition, dose response, biochemical, fluorescence polarization, uHTS hits (AID 602369)
# [3] = target: T1, Replicative DNA helicase DnaB (Mycobacterium tuberculosis, UniProt P9WMR3); assay: DnaB intein splicing inhibitors, dose response, biochemical, cell-free fluorescence (AID 449749)
# T1 sequence (P9WMR3 whole entry): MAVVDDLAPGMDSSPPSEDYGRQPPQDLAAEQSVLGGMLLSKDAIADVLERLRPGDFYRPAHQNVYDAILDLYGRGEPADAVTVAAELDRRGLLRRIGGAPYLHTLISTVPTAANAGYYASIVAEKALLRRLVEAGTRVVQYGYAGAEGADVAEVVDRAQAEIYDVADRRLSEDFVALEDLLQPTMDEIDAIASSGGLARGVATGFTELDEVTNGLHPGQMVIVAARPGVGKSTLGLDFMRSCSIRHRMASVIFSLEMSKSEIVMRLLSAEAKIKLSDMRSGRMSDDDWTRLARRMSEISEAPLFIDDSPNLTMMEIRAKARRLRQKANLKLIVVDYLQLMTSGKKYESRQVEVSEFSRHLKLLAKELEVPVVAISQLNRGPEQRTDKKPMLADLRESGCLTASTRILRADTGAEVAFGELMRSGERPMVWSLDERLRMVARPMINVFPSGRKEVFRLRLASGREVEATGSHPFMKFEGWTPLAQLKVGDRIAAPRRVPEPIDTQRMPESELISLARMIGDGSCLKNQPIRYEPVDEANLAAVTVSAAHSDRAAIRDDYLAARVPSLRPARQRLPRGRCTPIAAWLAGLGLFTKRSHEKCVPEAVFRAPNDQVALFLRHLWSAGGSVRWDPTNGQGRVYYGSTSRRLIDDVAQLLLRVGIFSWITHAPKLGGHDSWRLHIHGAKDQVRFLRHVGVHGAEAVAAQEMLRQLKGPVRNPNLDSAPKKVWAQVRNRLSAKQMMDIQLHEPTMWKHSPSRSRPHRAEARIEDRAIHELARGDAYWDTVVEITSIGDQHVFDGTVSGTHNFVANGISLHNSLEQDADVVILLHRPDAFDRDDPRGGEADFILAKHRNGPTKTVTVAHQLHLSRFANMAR
# Protein RecA = target: T2, Protein RecA (Mycobacterium tuberculosis, UniProt P9WHJ3); assay: Fluorescence Cell-Free Homogeneous Dose Retest to Identify Inhibitors of RecA-Intein Splicing Activity. [Related pubchem assays (depositor defined):AID2097, AID2223, AID489010, AID492950]
# T2 sequence (P9WHJ3 whole entry): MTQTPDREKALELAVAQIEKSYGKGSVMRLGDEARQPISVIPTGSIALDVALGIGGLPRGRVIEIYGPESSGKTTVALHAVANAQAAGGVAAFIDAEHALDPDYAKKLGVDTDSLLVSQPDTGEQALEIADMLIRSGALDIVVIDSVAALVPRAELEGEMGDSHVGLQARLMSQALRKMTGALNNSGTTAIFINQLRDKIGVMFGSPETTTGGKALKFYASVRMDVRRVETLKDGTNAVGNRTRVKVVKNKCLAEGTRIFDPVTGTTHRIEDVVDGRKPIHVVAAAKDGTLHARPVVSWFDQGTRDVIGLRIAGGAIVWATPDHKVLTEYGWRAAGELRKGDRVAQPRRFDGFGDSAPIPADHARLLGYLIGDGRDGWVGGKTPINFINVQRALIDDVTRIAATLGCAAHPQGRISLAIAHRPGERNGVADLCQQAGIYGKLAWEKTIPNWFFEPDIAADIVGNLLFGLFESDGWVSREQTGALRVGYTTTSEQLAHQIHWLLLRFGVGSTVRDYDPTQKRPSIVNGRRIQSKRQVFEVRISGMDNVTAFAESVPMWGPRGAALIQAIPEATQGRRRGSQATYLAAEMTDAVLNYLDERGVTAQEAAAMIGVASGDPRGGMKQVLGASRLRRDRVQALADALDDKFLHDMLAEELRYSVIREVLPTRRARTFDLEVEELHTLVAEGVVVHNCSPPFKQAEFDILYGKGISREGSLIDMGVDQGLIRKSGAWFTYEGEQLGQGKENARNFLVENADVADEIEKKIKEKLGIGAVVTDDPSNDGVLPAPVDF
# [4] = target: T3, Sentrin-specific protease 8 (Homo sapiens, UniProt Q96LD8); assay: SENP8 protease inhibitors, SAR follow-up, biochemical, luminescence (AID 504501)
# T3 sequence (Q96LD8 whole entry): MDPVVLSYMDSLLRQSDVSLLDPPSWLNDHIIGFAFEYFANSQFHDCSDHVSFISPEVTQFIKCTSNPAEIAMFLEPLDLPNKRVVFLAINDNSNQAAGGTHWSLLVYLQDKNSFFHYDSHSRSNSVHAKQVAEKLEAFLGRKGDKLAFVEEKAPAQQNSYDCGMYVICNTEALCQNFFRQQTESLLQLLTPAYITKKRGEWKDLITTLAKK
# Caspase-3 = target: T4, Caspase-3 (Homo sapiens, UniProt P42574); assay: SAR Analysis of small molecule inhibitors of Sentrin-specific proteases (SENPs) using a Caspase-3 Selectivity assay. [Related pubchem assays (depositor defined):AID2540, AID2599, AID434973, AID489001]
# T4 sequence (P42574 whole entry): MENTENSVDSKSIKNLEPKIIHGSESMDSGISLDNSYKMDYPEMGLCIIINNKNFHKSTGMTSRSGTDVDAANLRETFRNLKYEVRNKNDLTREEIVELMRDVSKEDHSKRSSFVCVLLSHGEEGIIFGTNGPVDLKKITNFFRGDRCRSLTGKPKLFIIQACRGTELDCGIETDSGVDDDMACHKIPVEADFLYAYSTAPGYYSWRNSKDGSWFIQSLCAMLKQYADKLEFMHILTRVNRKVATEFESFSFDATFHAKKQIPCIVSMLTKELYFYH
# [5] = target: T5, Sentrin-specific protease 6 (Homo sapiens, UniProt Q9GZR1); assay: SAR Analysis of small molecule inhibitors of Sentrin-specific protease 6 (SENP6) using a Luminescent assay. [Related pubchem assays (depositor defined):AID2582, AID2599]
# T5 sequence (Q9GZR1 whole entry): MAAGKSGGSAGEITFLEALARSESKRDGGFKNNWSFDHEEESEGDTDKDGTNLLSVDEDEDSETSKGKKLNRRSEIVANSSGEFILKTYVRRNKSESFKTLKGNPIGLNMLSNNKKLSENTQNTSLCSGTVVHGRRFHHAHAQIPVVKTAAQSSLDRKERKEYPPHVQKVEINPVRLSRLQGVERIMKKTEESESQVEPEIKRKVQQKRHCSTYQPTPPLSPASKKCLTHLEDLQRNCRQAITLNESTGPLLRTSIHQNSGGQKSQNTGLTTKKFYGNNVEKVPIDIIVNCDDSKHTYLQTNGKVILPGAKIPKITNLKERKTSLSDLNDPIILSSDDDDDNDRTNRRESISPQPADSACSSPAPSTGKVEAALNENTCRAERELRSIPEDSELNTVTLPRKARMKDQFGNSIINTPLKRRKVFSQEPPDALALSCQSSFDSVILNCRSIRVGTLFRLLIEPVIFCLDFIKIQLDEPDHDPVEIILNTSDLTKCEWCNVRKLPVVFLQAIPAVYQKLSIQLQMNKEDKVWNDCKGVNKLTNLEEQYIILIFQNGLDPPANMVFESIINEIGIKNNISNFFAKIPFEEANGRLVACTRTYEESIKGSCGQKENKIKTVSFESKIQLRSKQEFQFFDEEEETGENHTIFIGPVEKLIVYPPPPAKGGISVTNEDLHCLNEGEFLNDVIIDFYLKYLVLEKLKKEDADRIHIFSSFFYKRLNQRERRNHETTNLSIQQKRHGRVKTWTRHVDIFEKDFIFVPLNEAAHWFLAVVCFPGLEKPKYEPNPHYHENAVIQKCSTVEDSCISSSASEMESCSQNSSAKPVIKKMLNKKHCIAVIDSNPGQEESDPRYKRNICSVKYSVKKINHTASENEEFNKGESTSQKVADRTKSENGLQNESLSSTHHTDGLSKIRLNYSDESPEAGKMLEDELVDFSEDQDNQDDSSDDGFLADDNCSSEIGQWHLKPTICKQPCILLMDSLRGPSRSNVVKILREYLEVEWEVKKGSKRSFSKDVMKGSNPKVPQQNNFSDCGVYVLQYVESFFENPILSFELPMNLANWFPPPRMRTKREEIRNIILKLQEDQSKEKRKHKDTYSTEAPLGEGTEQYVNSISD
# [6] = target: T6, Sentrin-specific protease 7 (Homo sapiens, UniProt Q9BQF6); assay: SENP7 protease inhibitors, SAR follow-up, biochemical, luminescence (AID 504497)
# T6 sequence (Q9BQF6 whole entry): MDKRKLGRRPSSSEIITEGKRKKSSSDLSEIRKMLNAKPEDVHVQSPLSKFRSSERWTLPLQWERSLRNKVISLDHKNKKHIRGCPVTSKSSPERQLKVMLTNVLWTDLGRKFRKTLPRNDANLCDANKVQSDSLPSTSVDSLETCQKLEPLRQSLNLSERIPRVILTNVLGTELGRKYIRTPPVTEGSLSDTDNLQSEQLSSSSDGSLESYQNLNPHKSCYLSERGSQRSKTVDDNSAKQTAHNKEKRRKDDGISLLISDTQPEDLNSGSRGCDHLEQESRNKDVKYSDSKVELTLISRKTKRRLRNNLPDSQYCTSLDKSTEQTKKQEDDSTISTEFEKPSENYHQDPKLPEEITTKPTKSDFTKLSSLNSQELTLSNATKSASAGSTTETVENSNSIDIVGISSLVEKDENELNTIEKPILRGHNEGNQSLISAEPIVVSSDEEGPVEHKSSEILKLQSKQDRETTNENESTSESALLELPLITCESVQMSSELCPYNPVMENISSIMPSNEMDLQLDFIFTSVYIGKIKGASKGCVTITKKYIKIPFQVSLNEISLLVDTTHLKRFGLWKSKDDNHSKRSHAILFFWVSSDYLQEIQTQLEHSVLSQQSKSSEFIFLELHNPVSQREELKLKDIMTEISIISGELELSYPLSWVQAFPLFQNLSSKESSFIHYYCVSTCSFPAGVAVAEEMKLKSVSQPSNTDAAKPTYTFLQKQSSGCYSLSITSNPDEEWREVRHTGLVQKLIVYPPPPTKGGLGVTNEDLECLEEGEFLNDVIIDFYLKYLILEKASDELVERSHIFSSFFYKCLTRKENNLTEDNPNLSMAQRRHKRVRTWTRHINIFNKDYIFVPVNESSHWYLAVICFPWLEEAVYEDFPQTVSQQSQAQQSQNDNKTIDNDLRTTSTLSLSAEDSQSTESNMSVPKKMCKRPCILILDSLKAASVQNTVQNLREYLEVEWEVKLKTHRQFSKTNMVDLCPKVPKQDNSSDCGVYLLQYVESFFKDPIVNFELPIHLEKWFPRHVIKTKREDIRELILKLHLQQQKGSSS
# [7] = target: T7, Carboxy-terminal domain RNA polymerase II polypeptide A small phosphatase 1 (Homo sapiens, UniProt Q9GZU7); assay: inhibitors of CTDSP1, concentration-response testing, biochemical assay, absorbance-based, actives from ultra-high-throughput screening (AID 540297)
# T7 sequence (Q9GZU7 whole entry): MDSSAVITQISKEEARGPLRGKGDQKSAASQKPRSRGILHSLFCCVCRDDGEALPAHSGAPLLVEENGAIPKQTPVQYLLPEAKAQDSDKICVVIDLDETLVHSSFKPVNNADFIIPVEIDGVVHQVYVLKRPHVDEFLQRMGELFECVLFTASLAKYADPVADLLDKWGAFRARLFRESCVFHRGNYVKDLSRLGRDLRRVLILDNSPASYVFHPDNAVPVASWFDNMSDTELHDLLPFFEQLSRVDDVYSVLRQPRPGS
# Chain of 72 kDa type IV collagenase (P08253 whole entry): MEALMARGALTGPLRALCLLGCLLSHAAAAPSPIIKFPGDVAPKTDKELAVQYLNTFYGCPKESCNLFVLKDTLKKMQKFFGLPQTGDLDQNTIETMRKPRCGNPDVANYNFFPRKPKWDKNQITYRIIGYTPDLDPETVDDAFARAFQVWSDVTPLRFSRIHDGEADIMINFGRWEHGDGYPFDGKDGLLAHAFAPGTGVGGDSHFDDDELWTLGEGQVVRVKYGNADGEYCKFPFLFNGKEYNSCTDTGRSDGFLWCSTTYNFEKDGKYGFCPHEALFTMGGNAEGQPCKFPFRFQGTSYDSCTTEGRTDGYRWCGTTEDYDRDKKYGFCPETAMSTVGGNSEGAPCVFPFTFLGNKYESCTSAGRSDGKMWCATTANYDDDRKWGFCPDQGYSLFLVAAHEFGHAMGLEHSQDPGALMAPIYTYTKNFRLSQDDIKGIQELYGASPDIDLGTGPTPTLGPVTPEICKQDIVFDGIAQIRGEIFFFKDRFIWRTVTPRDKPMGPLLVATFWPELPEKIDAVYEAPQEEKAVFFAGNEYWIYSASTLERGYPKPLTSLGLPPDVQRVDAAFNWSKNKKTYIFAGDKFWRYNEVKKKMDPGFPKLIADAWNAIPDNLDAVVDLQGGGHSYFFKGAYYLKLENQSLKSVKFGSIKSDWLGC
# Chain of 26S proteasome non-ATPase regulatory subunit 14 (O00487 whole entry): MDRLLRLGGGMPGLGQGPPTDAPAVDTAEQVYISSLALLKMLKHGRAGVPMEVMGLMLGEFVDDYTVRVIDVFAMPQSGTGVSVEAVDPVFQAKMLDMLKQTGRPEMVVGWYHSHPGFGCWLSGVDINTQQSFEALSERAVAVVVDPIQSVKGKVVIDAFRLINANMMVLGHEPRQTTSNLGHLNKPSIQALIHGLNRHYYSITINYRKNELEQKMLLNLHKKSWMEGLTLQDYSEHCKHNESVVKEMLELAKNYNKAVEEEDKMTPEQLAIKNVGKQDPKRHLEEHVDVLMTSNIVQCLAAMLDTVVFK
SMILES,IC50 [1],IC50 [2],IC50 (Prothrombin),AC50 [3],EC50 (Protein RecA),IC50 [4],IC50 (Caspase-3),IC50 [5],IC50 [6],IC50 [7]
Cc1ccc(C(=O)CSc2cc(C)nc(=O)[nH]2)cc1,33.8 µM (active),27.9 µM (active),47.5 µM (active),–,–,–,–,–,–,–
O=C(O)CN1C(=O)/C(=C\c2ccc(OC(=O)c3ccco3)cc2)SC1=S,25.4 µM (active),> 100 µM (inactive),27.8 µM (active),165 µM (active),20.3 µM (active),–,–,–,–,–
FC(F)(F)c1ccc(N/N=C/c2c[nH]c3ccccc23)cc1,–,–,–,–,–,> 99 µM (inactive),> 99 µM (inactive),> 99 µM (inactive),> 99 µM (inactive),–
CCN(CC)c1ccc(/C=N/Nc2nc(N3CCCC3)nc(N3CCCC3)n2)cc1,–,–,–,–,–,> 99 µM (inactive),> 99 µM (inactive),> 99 µM (inactive),> 99 µM (inactive),–
COc1ccc(CCC(=O)Nc2ccc(-c3noc(/C=C/c4ccccc4)n3)cc2)cc1,–,–,–,–,–,> 99 µM (inactive),> 99 µM (inactive),> 99 µM (inactive),> 99 µM (inactive),–
CC(=O)Nc1ccc(/C(C)=N/NC(=O)c2ccc(COc3ccccc3Cl)o2)cc1,24.8 µM (active),> 100 µM (inactive),43.6 µM (active),–,–,–,–,–,–,7.9 µM (active)

# Reference: ChEMBL document CHEMBL1201862, “PubChem BioAssay data set” (2004)
